In patent US8741897B2, “Glucocorticoid mimetics, methods of making them, pharmaceutical compositions and uses thereof” (Boehringer Ingelheim Pharmaceuticals Inc., priority 2003, dated 2014):

Tested on: glucocorticoid receptor function
Experiment: one or more of the above assays (GR binding and glucocorticoid receptor cell assays: aromatase, IL-6, TAT, MMTV-Luc, IL-8, ICAM-Luc)
Assay type: cell-based
Conditions: assay not specified per compound
Protocol: B. Glucocorticoid Receptor Cell Assays
1. Induction of Aromatase in Fibroblasts (Cell Assay for Transactivation)
Dexamethasone, a synthetic ligand to the glucocorticoid receptor (GR), induces expression of aromatase in human foreskin fibroblast cells. The activity of aromatase is measured by the conversion of testosterone to estradiol in culture media.
On the day of the experiment, the media in the wells is replaced with fresh media. Cells are treated with test compounds to final concentrations of 10^−5 M to 10^−8 M, and testosterone to a final concentration of 300 ng/mL. Each well has a total volume of 100 μL. Samples are made in duplicates. Control wells include: (a) wells that receive testosterone only, and (b) wells that receive testosterone plus 2 μM of dexamethasone to provide maximum induction of aromatase. Plates are incubated at 37° C. overnight (15 to 18 hours), and supernatants are harvested at the end of incubation. […] The amount of estradiol is inversely proportional to the ELISA signals in each well. The extent of aromatase induction by test compounds is expressed as a relative percentage to dexamethasone. EC50 values of test compounds are derived by non-linear curve fitting.
2. Inhibition of IL-6 Production in Fibroblasts (Cell Assay for Transrepression)
Human foreskin fibroblast cells produce IL-6 in response to stimulation by proinflammatory cytokine IL-1.
On the next day, media in the wells is replaced with fresh media. Cells are treated with IL-1 (rhIL-1α, R&D Systems Cat. No. 200-LA) to a final concentration of 1 ng/mL, and with test compounds to final concentrations of 10^−5 M to 10^−8 M, in a total volume of 200 μL per well. Samples are done in duplicates. […] Positive control wells receive IL-1 only and represent maximum (or 100%) amount of IL-6 production. Plates are incubated at 37° C. overnight (15 to 18 hours), and supernatants are harvested at the end of incubation. IL-6 levels in the supernatants are determined by the ELISA kits for IL-6 (MedSystems Diagnostics GmbH, Vienna, Austria, Cat. No. BMS213TEN) according to manufacture's instructions. The extent of inhibition of IL-6 by test compounds is expressed in percentage relative to positive controls. IC50 values of test compounds are derived by non-linear curve fitting.
Evaluation of agonist or antagonist activity of compounds binding to the glucocorticoid receptor may be determined by any of the assays.
3. Modulation of Tyrosine Aminotransferase (TAT) Induction in Rat Hepatoma Cells
Testing of compounds for agonist or antagonist activity in induction of tyrosine aminotransferase (TAT) in rat hepatoma cells.
H4-II-E-C3 cells were incubated overnight in 96 well plates (20,000 cells/100 μL/well) in MEM medium containing 10% heat inactivated FBS and 1% nonessential amino acids. On the next day, cells were stimulated with the indicated concentrations of dexamethasone or test compound (dissolved in DMSO, final DMSO concentration 0.2%) for 18 hours. Control cells were treated with 0.2% DMSO. After 18 hours, the cells were lysed in a buffer containing 0.1% Triton X-100 and the TAT activity was measured in a photometric assay using tyrosine and alpha-ketoglutarate as substrates.
For measuring antagonist activity, the hepatoma cells were pre-stimulated by addition of dexamethasone (concentration ranges from 3×10^−9 M to 3×10^−8 M) shortly before the test compound was applied to the cells.
4. Modulation of MMTV-Luc Induction in HeLa Cells
Testing of compounds for agonist or antagonist activity in stimulation of MMTV-(mouse mammary tumor virus) promoter in HeLa cells.
Cells were cultured overnight in DMEM medium without phenol red, supplemented with 3% CCS (charcoal treated calf serum) and then transferred to 96 well plates (15,000 cells/100 μL/well).

Compound	activity as agonists of the glucocorticoid receptor function in one or more of the above assays
CN(C)c1ccc(-c2ccc3[nH]c(CC(O)(CC(C)(C)c4cc(F)cc5c4OCC5)C(F)(F)F)cc3c2)cc1 (centres unmarked) [2-[5-(4-Dimethylaminophenyl)-1H-indol-2-ylmethyl]-1,1,1-trifluoro-4-(5-fluoro-2,3-dihydrobenzofuran-7-yl)-4-methylpentan-2-ol]	potent agonists
CC(C)(CC(O)(Cn1ccc2ncccc21)C(F)F)c1cc(Cl)cc2c1OCC2 (centres unmarked) [4-(5-Chloro-2,3-dihydrobenzofuran-7-yl)-1,1-difluoro-4-methyl-2-pyrrolo[3,2-b]pyridin-1-ylmethylpentan-2-ol]	agonists
COc1ccc(C)cc1C(C)(C)CC(O)(Cc1cc2nc(N3CCCC3)ncc2[nH]1)C(F)(F)F (centres unmarked)	potent agonists
COc1ccc(-c2cccnc2)cc1C(C)(C)CC(O)(Cc1cc2ccncc2[nH]1)C(F)(F)F (centres unmarked) [1,1,1-Trifluoro-4-(2-methoxy-5-pyridin-3-ylphenyl)-4-methyl-2-(1H-pyrrolo[2,3-c]pyridin-2-ylmethyl)pentan-2-ol]	potent agonists
CC(C)Oc1cc2cc(CC(O)(CC(C)(C)c3ccccc3)C(F)(F)F)[nH]c2cn1 (centres unmarked) [1,1,1-Trifluoro-2-(5-isopropoxy-1H-pyrrolo[2,3-c]pyridin-2-ylmethyl)-4-methyl-4-phenylpentan-2-ol]	potent agonists
4-Pyrimidin-5-yl-2-[4,4,4-trifluoro-3-hydroxy-1,1-dimethyl-3-(1H-pyrrolo[2,3-c]pyridin-ylmethyl)butyl]phenol	potent agonists
CC(C)(CC(O)(Cc1cc2ccncc2[nH]1)C(F)(F)F)c1cccc(C2OCCCO2)c1 (centres unmarked) [4-(3-[1,3]Dioxan-2-ylphenyl)-1,1,1-trifluoro-4-methyl-2-(1H-pyrrolo[2,3-c]pyridin-2-ylmethyl)pentan-2-ol]	potent agonists
COc1cc(F)ccc1C(C)(C)CC(O)(Cc1[nH]c2cnccc2c1C)C(F)(F)F (centres unmarked) [1,1,1-Trifluoro-4-(4-fluoro-2-methoxyphenyl)-4-methyl-2-(3-methyl-1H-pyrrolo[2,3-c]pyridin-2-ylmethyl)pentan-2-ol]	potent agonists
COc1ccc(F)cc1C(C)(C)CC(O)(Cc1cc2cnccc2[nH]1)C(C)(C)C (centres unmarked) [5-(5-Fluoro-2-methoxyphenyl)-2,2,5-trimethyl-3-(1H-pyrrolo[3,2-c]pyridin-2-ylmethyl)hexan-3-ol]	agonists
CC(C)(CC(O)(Cc1cc2cc(-c3cccnc3)ccc2[nH]1)C(F)(F)F)c1cc(F)cc2c1OCC2 (centres unmarked) [1,1,1-Trifluoro-4-(5-fluoro-2,3-dihydrobenzofuran-7-yl)-4-methyl-2-(5-pyridin-3-yl-1H-indol-2-ylmethyl)pentan-2-ol]	potent agonists
COc1ccc(-c2ccsc2)cc1C(C)(C)CC(O)(Cc1cc2cc(OC(C)C)ncc2[nH]1)C(F)(F)F (centres unmarked) [1,1,1-Trifluoro-2-(5-isopropoxy-1H-pyrrolo[2,3-c]pyridin-2-ylmethyl)-4-(2-methoxy-5-thiophen-3-ylphenyl)-4-methylpentan-2-ol]	potent agonists
C[S+]([O-])c1ccc2[nH]c(CC(O)(CC(C)(C)c3cc(F)cc4c3OCC4)C(F)(F)F)cc2c1 (centres unmarked) [1,1,1-Trifluoro-4-(5-fluoro-2,3-dihydrobenzofuran-7-yl)-2-(5-methanesulfinyl-1H-indol-2-ylmethyl)-4-methylpentan-2-ol]	potent agonists
CC(C)(CC(O)(Cc1cc2cnccc2[nH]1)C(F)(F)F)c1cccc(-c2cncnc2)c1 (centres unmarked) [1,1,1-Trifluoro-4-methyl-4-(3-pyrimidin-5-ylphenyl)-2-(1H-pyrrolo[3,2-c]pyridin-2-ylmethyl)pentan-2-ol]	potent agonists
CC(C)(CC(O)(Cc1cc2cnccc2[nH]1)C(C)(C)C)c1cc(Cl)cc2c1OCC2 (centres unmarked) [5-(5-Chloro-2,3-dihydrobenzofuran-7-yl)-2,2,5-trimethyl-3-(1H-pyrrolo[3,2-c]pyridin-2-ylmethyl)hexan-3-ol]	agonists
CC(C)C(O)(Cc1cc2cc(-c3ccccc3)ncc2[nH]1)CC(C)(C)c1cc(Cl)cc2c1OCC2 (centres unmarked) [5-(5-Chloro-2,3-dihydrobenzofuran-7-yl)-2,5-dimethyl-3-(5-phenyl-1H-pyrrolo[2,3-c]pyridin-2-ylmethyl)hexan-3-ol]	agonists
COc1cc(F)ccc1C(C)(C)CC(O)(Cc1cc2c(C)cncc2[nH]1)C(F)(F)F (centres unmarked) [1,1,1-Trifluoro-4-(4-fluoro-2-methoxyphenyl)-4-methyl-2-(4-methyl-1H-pyrrolo[2,3-c]pyridin-2-ylmethyl)pentan-2-ol]	potent agonists
COc1ccc(-c2cccnc2)cc1C(C)(C)CC(O)(Cc1cc2cc(Oc3ccccc3)ncc2[nH]1)C(F)(F)F (centres unmarked) [1,1,1-Trifluoro-4-(2-methoxy-5-pyridin-3-ylphenyl)-4-methyl-2-(5-phenoxy-1H-pyrrolo[2,3-c]pyridin-2-ylmethyl)pentan-2-ol]	potent agonists
Cc1c(CC(O)(CC(C)(C)c2ccc(F)cc2O)C(F)(F)F)[nH]c2cnccc12 (centres unmarked) [5-Fluoro-2-[4,4,4-trifluoro-3-hydroxy-1,1-dimethyl-3-(3-methyl-1H-pyrrolo[2,3-c]pyridin-2-ylmethyl)butyl]phenol]	potent agonists
COc1ccc(-c2ccccc2)cc1C(C)(C)CC(O)(Cc1cc2cc(N3CCCCC3)ncc2[nH]1)C(F)(F)F (centres unmarked) [1,1,1-Trifluoro-4-(4-methoxybiphenyl-3-yl)-4-methyl-2-(5-piperidin-1-yl-1H-pyrrolo[2,3-c]pyridin-2-ylmethyl)pentan-2-ol]	potent agonists
COc1ccc(F)cc1C(C)(C)CC(O)(Cc1cc2ccncc2[nH]1)C(F)F (centres unmarked) [1,1-Difluoro-4-(5-fluoro-2-methoxyphenyl)-4-methyl-2-(1H-pyrrolo[2,3-c]pyridin-2-ylmethyl)pentan-2-ol]	agonists
CC(C)(CC(O)(Cc1cc2nc(N3CCCC3)ncc2[nH]1)C(F)(F)F)c1cc(Cl)cc2c1OCC2 (centres unmarked) [4-(5-Chloro-2,3-dihydrobenzofuran-7-yl)-1,1,1-trifluoro-4-methyl-2-(2-pyrrolidin-1-yl-5H-pyrrolo[3,2-d]pyrimidin-6-ylmethyl)pentan-2-ol]	potent agonists
Cc1ccc(F)cc1C(C)(C)CC(O)(Cc1cc2cnccc2[nH]1)C(C)C (centres unmarked) [5-(5-Fluoro-2-methylphenyl)-2,5-dimethyl-3-(1H-pyrrolo[3,2-c]pyridin-2-ylmethyl)hexan-3-ol]	agonists
CC(C)(CC(O)(Cc1cc2nc(CO)ccc2[nH]1)C(F)(F)F)c1cc(Cl)cc2c1OCC2 (centres unmarked) [4-(5-Chloro-2,3-dihydrobenzofuran-7-yl)-1,1,1-trifluoro-2-(5-hydroxymethyl-1H-pyrrolo[3,2-b]pyridin-2-ylmethyl)-4-methylpentan-2-ol]	potent agonists
